The numbers were not newly measured in patent US20060155301A1, “Methods and devices usable in eye surgery” (priority 2002, published 2006), which cites them from elsewhere.

Data set [1] relates to lens epithelial cells. The settings on record: in vitro.
The test system of data set [2] is lens epithelial cells. As to conditions: EDTA solution in irrigation solution, cadaver eyes.
The subject of data set [3] is lens epithelial cells. As to conditions: 2% trypsin solution in irrigation solution, cadaver eyes.

Where two headings read alike, the source gives them in different places.

With `O=c1[nH]cc(F)c(=O)[nH]1` [5 fluorouracil], the “inhibiting lens epithelial cells proliferation” value in the data set with lens epithelial cells [1] is “effective”.

Take `O=C(O)CN(CCN(CC(=O)O)CC(=O)O)CC(=O)O` [EDTA, Ethylenediamine tetraacetic acid]: the “separation of lens epithelial cells” value in the data set with lens epithelial cells [2] is “the anterior lens epithelial cells could be separated”.

For `COc1cc2c(c(OC)c1OC)-c1ccc(OC)c(=O)cc1[C@@H](NC(C)=O)CC2` [colchicines], in the data set with lens epithelial cells [1], the “inhibiting lens epithelial cells proliferation” value is “effective”.

`COc1cccc2c1C(=O)c1c(O)c3c(c(O)c1C2=O)C[C@@](O)(C(C)=O)C[C@@H]3O[C@H]1C[C@H](N)[C@H](O)[C@H](C)O1` [daunomycin/daunorubicin]: in the data set with lens epithelial cells [1], the “inhibiting lens epithelial cells proliferation” value is “effective”.

Turning to `COc1cccc2c1C(=O)c1c(O)c3c(c(O)c1C2=O)C[C@@](O)(C(=O)CO)C[C@@H]3O[C@H]1C[C@H](N)[C@H](O)[C@H](C)O1` [doxorubicin], in the data set on lens epithelial cells [1], the “inhibiting lens epithelial cells proliferation” value is recorded as “effective”.

`CN(Cc1cnc2nc(N)nc(N)c2n1)c1ccc(C(=O)N[C@@H](CCC(=O)O)C(=O)O)cc1` [methotrexate]: the “inhibiting lens epithelial cells proliferation” value with lens epithelial cells [1] is listed as “effective”.

As to `CO[C@@]12[C@H](COC(N)=O)C3=C(C(=O)C(C)=C(N)C3=O)N1C[C@@H]1N[C@@H]12` [mitomycin], in the data set with lens epithelial cells [1], the “inhibiting lens epithelial cells proliferation” value is recorded as “effective”.

Turning to `CC(=O)O[C@H]1C(=O)[C@@]2(C)[C@H]([C@H](OC(=O)c3ccccc3)[C@]3(O)C[C@H](OC(=O)[C@H](O)[C@@H](NC(=O)c4ccccc4)c4ccccc4)C(C)=C1C3(C)C)[C@]1(OC(C)=O)CO[C@@H]1C[C@@H]2O` [taxol], the “inhibiting lens epithelial cells proliferation” value with lens epithelial cells [1] was “effective”.

B1: trypsin (protein, UniProt P00760 24-246, looked up)
Serine protease 1: IVGGYTCGANTVPYQVSLNSGYHFCGGSLINSQWVVSAAHCYKSGIQVRLGEDNINVVEGNEQFISASKSIVHPSYNSNTLNNDIMLIKLKSAASLNSRVASISLPTSCASAGTQCLISGWGNTKSSGTSYPDVLKCLKAPILSDSSCKSAYPGQITSNMFCAGYLEGGKDSCQGDSGGPVVCSGKLQGIVSWGSGCAQKNKPGVYTKVCNYVSWIKQTIASN
notes: enzyme evaluated for separation of lens epithelial cells
As to B1, in the data set on lens epithelial cells [3], the “damage to the zonules” value is listed as “the zonules were damaged” and the “separation of lens epithelial cells” value was “lens epithelial cells were stripped in places”.
